Converted amounts (≈) assume the structure as drawn.

Series [1] is described as follows: Compound was evaluated for its antimalarial activity in vitro on Plasmodium falciparum. It is filed as functional.
Series [2] is described as follows: Compound was evaluated for toxicity on Human kidney epithelial (Graham cells) at a dose of 100 ug/mL. Type of series: cell-based.
Series [3] in a line: Compound was evaluated for toxicity on Human kidney epithelial (Graham cells) at a dose of 100 ug/mL; Not toxic. Type of series: cell-based.

Consider `C=C1C(=O)[C@@]23CCC4[C@@]5(C)CCC[C@@]4(OC5=O)[C@@]2(C)CC[C@]1(O)C3` (stereo not given in full), for which the half-inhibitory concentration (IC50) stood at 0.54 µg/mL (≈ 1.63 µM) in series [1] and 1.73 µg/mL (≈ 5.24 µM) in series [2].
The corresponding values for `C=C1C(=O)[C@@]23CC[C@@H]4[C@@]5(C)CCC[C@@]4(OC5=O)[C@@]2(C)CC[C@]1(OC)C3` are 0.67 µg/mL (≈ 1.95 µM) and 1.13 µg/mL (≈ 3.28 µM).
For the compound `C=C1C(=O)[C@@]23CCC4[C@@]5(C)CCC[C@@]4(OC5=O)[C@@]2(C)CC[C@@H]1C3` (stereo not given in full), the figures for the 50% inhibitory concentration (IC50) in series [1] and in series [2] were 1.57 µg/mL (≈ 4.99 µM) and 3.01 µg/mL (≈ 9.57 µM), respectively.
In the case of `CCN(CC)CCCC(C)Nc1ccnc2cc(Cl)ccc12` (stereo not given) [CHLOROQUINE], the results for the half-inhibitory concentration (IC50) in series [1] and in series [3] were 0.04 µg/mL (≈ 0.125 µM) and “Non-toxic”, respectively.
Regarding `C=C[C@H]1CN2CC[C@H]1C[C@H]2[C@H](O)c1ccnc2ccc(OC)cc12` [QUININE], the IC50 in series [1] was 0.17 µg/mL (≈ 0.524 µM); in series [3], “Non-toxic”.

As usually defined, the IC50 is the concentration needed to halve the response being measured. Low values mean higher potency, high ones lower potency.

The record behind these values is ChEMBL document CHEMBL1134865, “Antimalarial compounds from Parinari capensis” (Bioorg Med Chem Lett, 2002).
